Measured values as given in US20190166841A1, “Method for Controlling PPO Resistant Weeds” (BASF SE, priority 2016, published 2019).

Legend:
Format in all cases: in vivo
[1] = tested on: Amaranthus tamariscinus (Common waterhemp, AMATA), PPO resistant biotype 2 (w.3); experiment: Greenhouse herbicidal activity test, PPO resistant waterhemp w.3; conditions: use rate 4 g/ha, scale 0 to 100
From the text: (§1) The culture containers used were plastic flowerpots containing loamy sand with approximately 3.0% of humus as the substrate. The seeds of the test plants were sown separately for each species and/or resistant biotype. For the pre-emergence treatment, the active ingredients, which had been suspended or emulsified in water, were applied directly after sowing by means of finely distributing nozzles. The containers were irrigated gently to promote germination and growth and subsequently covered with transparent plastic hoods until the plants had rooted. This cover caused uniform germination of the test plants, unless this had been impaired by the active ingredients. For the post-emergence treatment, the test plants were first grown to a height of 3 to 15 cm, depending on the plant habit, and only then treated with the active ingredients which had been suspended or emulsified in water. For this purpose, the test plants were either sown directly and grown in the same containers, or they were first grown separately as seedlings and transplanted into the test containers a few days prior to treatment. Depending on the species, the plants were kept at 10-25° C. or 20-35° C., respectively. The test period extended over 2 to 4 weeks. During this time, the plants were tended, and their response to the individual treatments was evaluated. The evaluation was carried out by using a scale from 0 to 100. […]

[2] = tested on: Amaranthus tamariscinus (Common waterhemp, AMATA), PPO resistant biotype 1 (w.2); experiment: Greenhouse herbicidal activity test, PPO resistant waterhemp w.2; conditions: use rate 4 g/ha, scale 0 to 100
From the text: as §1

[3] = tested on: Amaranthus tamariscinus (Common waterhemp, AMATA), Sensitive biotype (w.1); experiment: Greenhouse herbicidal activity test, sensitive waterhemp w.1; conditions: use rate 4 g/ha, scale 0 to 100 (100 = complete destruction, 0 = no damage)
From the text: as §1

[4] = tested on: Amaranthus tamariscinus (Common waterhemp, AMATA), PPO resistant biotype 3 that was shown to contain the ΔG210 mutation (w.4); experiment: Greenhouse herbicidal activity test, PPO resistant waterhemp w.4; conditions: use rate 4 g/ha; PPO resistant biotype 3 with ΔG210 mutation; scale 0 to 100
From the text: as §1

Structure (SMILES): CCS(=O)(=O)Nc1cc(-n2nc(C(F)(F)F)n(C)c2=O)c(F)cc1C(N)=S [(I).1, bencarbazone]
- Weed control (%) w.3 [1]: 100%
- Weed control (%) w.2 [2]: 100%
- Weed control (%) w.1 [3]: 92%
- Weed control (%) w.4 [4]: 82%
